Molecules are shown by their SMILES. Values after ≈ are worked out from the molar mass of the structure shown.

The conditions of this data set: buffer; pH 7.4; 200.0 µM.
Regarding `Cc1ccc(NC(=O)C(C)N2CCc3ccccc3C2)cc1` (configuration not stated), the solubility (kinetic) was determined as 31.8 µg/mL (≈ 108 µM).
For `CC(=O)N/C(=C\c1ccccc1)C(=O)OCc1ccccc1` the value was over 44.3 µg/mL; for `Oc1ccc2ccccc2c1CNc1ccc(Br)cn1`, 1.9 µg/mL (≈ 5.77 µM); for `CCOC(=O)c1c(C)[nH]c(C)c1C(=O)COC(=O)C1CC(=O)N(CCc2ccccc2)C1` (configuration not stated), over 66.1 µg/mL.
On to `C=CCOc1cccc(C(=O)NC(c2ccccc2)C(C)C)c1` (configuration not stated), for which the kinetic solubility was 1.2 µg/mL (≈ 3.88 µM).
For `CC(C)(C)c1cc(NS(=O)(=O)c2cccs2)no1` the value was 30.8 µg/mL (≈ 108 µM); for `O=c1ccc2cc3c([nH]c4ccc(Br)cc43)oc-2c1O`, over 49.5 µg/mL.
For `C[Se]C[C@@H](N)C(=O)O.Cl` the value was over 32.8 µg/mL.
Then `O=C(CCN1C(=O)C2C3C=CC(C3)C2C1=O)NC1CCCCC1` (configuration not stated), with over 47.5 µg/mL; and `CN(Cc1ccc(F)cc1)Cc1nc(-c2ccccc2)no1`, with 4.4 µg/mL (≈ 14.8 µM).
In the case of `CC(=O)c1ccc(-c2ccc(C(=O)NC3CCCCCC3)o2)cc1`, the kinetic solubility was determined as 6.7 µg/mL (≈ 20.6 µM).
For `CN1CCN(c2nc3ccccc3nc2C(C#N)S(=O)(=O)c2ccccc2)CC1` (configuration not stated) the value was over 61.1 µg/mL.
For `CN(C)c1cccc(NC(=O)c2ccco2)c1` the value was over 34.5 µg/mL; for `Cc1cc(NC(=O)CCc2ccc(-c3ccccc3)o2)no1`, 2.4 µg/mL (≈ 8.1 µM); for `CN1C(=S)SC(/[N+]([O-])=C/c2c(F)cccc2Cl)C1(C)C` (configuration not stated), over 49.9 µg/mL.
With `Cc1ccc(NC(=O)c2ccc(=O)[nH]c2)cc1S(=O)(=O)N1CCCCCC1`, the solubility (kinetic) is over 58.4 µg/mL.
Then `COc1ccccc1CNC(=O)Cc1c[nH]c2ccccc12`, with over 44.2 µg/mL; and `CC(NC(=O)c1ccc([N+](=O)[O-])o1)C12CC3CC(CC(C3)C1)C2` (configuration not stated), with 29.5 µg/mL (≈ 92.7 µM).
In turn, `COc1ccc(N/C=C2\CCc3ccccc3C2=O)cc1` gave a solubility (kinetic) of 2 µg/mL (≈ 7.16 µM).
Then `CC1CCCN(C(=O)c2ccc3c(c2)OCO3)C1` (configuration not stated), with over 37.1 µg/mL.
On to `Cc1ccccc1OCc1nc(-c2cccnc2)no1`, for which the kinetic solubility was found to be 30.2 µg/mL (≈ 113 µM).
For `CCOC(=O)c1ccc(NC(=O)CSCCC(=O)O)cc1` the value was 45.1 µg/mL (≈ 145 µM); for `O=C(Nc1nc2ccccc2[nH]1)NC1CCCCC1`, 1.6 µg/mL (≈ 6.19 µM); for `O=C(NCCc1ccc(Cl)cc1)C(=O)c1c[nH]c2ccccc12`, 2.1 µg/mL (≈ 6.43 µM).
Turning to `COCCNc1nc(-c2ccccc2)nc2c1oc1ccccc12.Cl`, the solubility (kinetic) was 4.6 µg/mL.
For `COc1ccc(NS(=O)(=O)c2ccc(C(=O)NCC3(N4CCOCC4)CCCCC3)cc2)cc1` the value was 13.8 µg/mL (≈ 28.3 µM); for `O=C(Nc1nccs1)c1ccc(N2C(=O)[C@@H]3[C@H](C2=O)[C@H]2C=C[C@@H]3C2)cc1`, 6.1 µg/mL (≈ 16.7 µM); for `COc1nc(N(C)C)nc(N(C#N)S(=O)(=O)c2ccc(C)cc2)n1`, 51.7 µg/mL (≈ 148 µM).
For `Cl.O=C(CCN1CCOCC1)NCc1ccccc1` the value was over 42.7 µg/mL.
As for `CCC(CO)NC(=O)c1ccccc1C(F)(F)F` (configuration not stated), the solubility (kinetic) was 28 µg/mL (≈ 107 µM).
For `O=C(c1ccccc1)N1CCN(CCc2ccccc2)CC1` the value was 40.7 µg/mL (≈ 138 µM).
For `CCOc1ccc(OCCn2c(=S)[nH]c3ccccc32)cc1` the value was 0.9 µg/mL (≈ 2.86 µM); for `N/C(=N\OC(=O)C12CC3CC(CC(C3)C1)C2)c1ccncc1`, 17 µg/mL (≈ 56.8 µM); for `c1ccc(CCCN2CCOCC2)cc1`, 19.2 µg/mL (≈ 93.5 µM).
Then `CC(C)CCc1noc(CN(C)CCC2CCOCC2)n1`, with over 44.3 µg/mL.
With `COCCCNC(=O)c1cc(C(=O)Cc2ccccc2)c[nH]1`, the kinetic solubility is over 45.1 µg/mL.
For `Cc1ccc(C)c(SCC(=O)c2ccc[nH]2)c1` the value was 29.9 µg/mL (≈ 122 µM).
`COc1ccc(NC(=O)COC(=O)CCc2ccc(S(=O)(=O)N3CCOCC3)cc2)cc1OC` had a kinetic solubility of 62 µg/mL (≈ 126 µM).
Then `COc1ccc(-n2cc(-c3ccccc3)c3c(=S)nc[nH]c32)cc1`, with 0.6 µg/mL (≈ 1.8 µM); and `CSc1ccc(/C=C/C(=O)N2CCCN(C)CC2)cc1.Cl`, with 44.1 µg/mL; and `O=C(NC(=S)Nc1ccccc1CO)C1CCCCC1`, with over 43.9 µg/mL.
`O=C(CCNC(=O)c1ccc(Cl)cc1)Nc1nc2ccccc2[nH]1` came in with a kinetic solubility of 2.3 µg/mL (≈ 6.71 µM).
For `O=C(NCC1CCCO1)c1ccccc1NS(=O)(=O)c1cccc([N+](=O)[O-])c1` (configuration not stated) the value was over 60.8 µg/mL.
In turn, `Cc1ccc(N2C(=O)C(F)(F)C2c2ccccc2)cc1` (configuration not stated) had a solubility (kinetic) of 1 µg/mL (≈ 3.66 µM).
`Cc1ccc(OCC(=O)NC(C)c2ccccc2)cc1C` (configuration not stated): the solubility (kinetic) was over 42.5 µg/mL.
Compound `Cc1ccc2c(c1)=C(c1ccccc1)N(O)CC(=O)N=2` yielded a solubility (kinetic) of over 39.9 µg/mL.
For `CC(C)(C)C(=O)Nc1ccc(-c2cn3cccnc3n2)cc1` the value was 42.6 µg/mL (≈ 145 µM); for `Cc1ccsc1CNS(=O)(=O)c1ccc(F)cc1`, 30 µg/mL (≈ 105 µM).
Then `CC1CCCC(NC(=O)COC(=O)COc2ccc(Br)cc2)C1C` (configuration not stated), with 11.6 µg/mL (≈ 29.1 µM); and `CCOC(=O)c1cn(C2CC2)c2c(F)c(F)c(F)cc2c1=O`, with 42.7 µg/mL (≈ 137 µM); and `CC(=O)c1ccc(-n2ccnc2)cc1`, with over 27.9 µg/mL.
On to `CCCNc1nc(Cl)nc(NCc2cccnc2)n1`, for which the solubility (kinetic) was determined as 33.5 µg/mL (≈ 120 µM).

In general, solubility (kinetic) refers to the concentration staying in solution when a stock, usually in DMSO, is diluted into the medium.
